Test results taken from US11453647B2, “Benzimidazole derivatives as adenosine receptor antagonists” (Merck Patent GmbH, priority 2017, dated 2022).
pIC50: −log10 of the molar value.

Key:
[1] = pharmacokinetic properties in mouse after single intravenous and oral administration; format: in vivo; settings: PK data in mouse; for Feces iv: @0.2 (dose, unit not given); for clearance / half-life / Cmax / Vd: female, plasma, 0.2 mg/kg; for Cmax: dose-normalized to 1 mg/kg; for Vd: read-out: Vss
From the text: The objective of the study was to obtain information on the pharmacokinetic properties of the compounds of the present invention in female Wistar rats/mice following single intravenous and oral administration.
Female Wistar rats/mice (n=6) received either a single intravenous (bolus) injection or an oral administration (by gavage) of the tested compound.
The concentrations of the compounds in plasma, feces were quantified using an UPLC method with tandem mass spectrometric detection (LC-MS/MS) previously developed at the ‘Institute of Drug Metabolism and Pharmacokinetics’. The LC-MS/MS system consisted of a Waters Acquity UPLC coupled to an AB Sciex mass spectrometer API 5500 Q-trap. […] The detection of the compounds was performed using multiple reaction monitoring in the positive ionization mode. Plasma samples were spiked with internal standard (20 μl) and the analyte was extracted from the matrix using tertiary-butyl methyl ether (tBME). The organic phase was evaporated to dryness under a stream of nitrogen. The residue was dissolved in acetonitrile/0.1% formic acid for LC-MS/MS analysis. Feces samples were homogenized with 4-times their volume of an ethanol/water mixture (4:1, v/v). Aliquots of the aqueous-ethanolic extracts were spiked with internal standard, diluted with acetonitrile/water (1:1, v/v) and directly injected into the LC-MS/MS system.
Pharmacokinetic parameters Cmax and tmax were taken from the observed data. […] AUC values were calculated by non-compartmental analysis using the linear up/log down method. Numerical data for mean plasma concentrations and derived pharmacokinetic parameters were rounded to 3 significant digits for presentation.

mouse Pan T cells [2] = assay: mouse Pan T cell IL-2 rescue from A2A agonist CGS-21680 (ELISA, 24 h); format: cell-based; settings: for pIC50: Mus musculus, T-cell
From the text: (§1) Adenosine (Ado) in tumor microenvironment can inhibit T cell activity by signaling through A2A receptors and suppress cytokine secretion by T cells. […] Potential A2A antagonists or A2A/A2B dual antagonists can rescue T cells from this inhibition. Herein, we describe the in vitro system we established using Pan T cells from mouse spleens to screen potential A2A antagonists or A2A/A2B dual antagonists for their activity. The method described involves the use of CD3/CD28 pre-coated beads to stimulate Pan T cells purified from mouse splenocytes, combined with the addition of A2A agonist along with potential A2A or A2A/A2B dual antagonists to evaluate potentiation of T cell cytokine production.
(§2) Briefly, mouse Pan T cells are purified from spleens of BALB/c mice using Pan T cell isolation kit Mouse II (MACS Miltenyi biotech Cat # Order no. 130-095-130) according to manufacturer's protocol. The purified T cells are seeded in Nunc™ 96-Well Polystyrene Round Bottom Microwell Plates in RPMI medium with 10% heat inactivated fetal bovine serum. The cells are rested at 37° C. for 1 h before activating with CD3/CD28 pre-coated beads (Dynabeads™ Mouse T-Activator CD3/CD28; Cat #11456D). After 30 min the cells are treated with varying doses of test antagonist(s). […] After 24 h incubation IL-2 levels in the supernatants and after 48 h incubation IFN-γ levels in the supernatants are measured by ELISAs according to manufacturer's protocol (R&D systems Cat # DY402 (IL-2); DY485 (IFN-γ)). Once the concentrations are calculated, the difference of cytokine concentration of DMSO control and agonist alone control is calculated (called A) and the percentage of rescue by each concentration of antagonist is calculated by using Microsoft Excel. These percentages of cytokine rescue in a dose dependent manner of antagonist is plotted in GraphPad Prism software and IC50 is calculated.

mouse Pan T cells [3] = assay: mouse Pan T cell IFN-γ rescue from A2A agonist CGS-21680 (ELISA, 48 h); format: cell-based; settings: for pIC50: Mus musculus, T-cell
From the text: as §1, §2

human A1 receptor = target: T1, human A1 receptor (Homo sapiens, UniProt P30542); assay: functional cAMP (HTRF) assay, recombinant CHO cells expressing human A1 receptor, forskolin, agonist CPA; format: cell-based
T1 construct: expressed in transfected cells; host or cells: CHO
T1 sequence (P30542 1-326): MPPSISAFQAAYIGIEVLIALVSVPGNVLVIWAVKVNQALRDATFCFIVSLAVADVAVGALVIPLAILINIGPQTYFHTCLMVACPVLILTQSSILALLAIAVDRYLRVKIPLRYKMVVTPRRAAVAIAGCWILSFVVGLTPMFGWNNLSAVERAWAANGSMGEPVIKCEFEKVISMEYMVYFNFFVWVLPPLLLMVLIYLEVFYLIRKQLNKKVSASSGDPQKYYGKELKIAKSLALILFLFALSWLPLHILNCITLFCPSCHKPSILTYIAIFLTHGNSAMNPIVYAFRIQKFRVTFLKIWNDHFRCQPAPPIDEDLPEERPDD
Procedure, shortened: (§3)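 Normalized HTRF cAMP signals (inhibitor and DMSO controls as references) were curve-fitted; assays used forskolin-stimulated CHO cells with A1 or A3, agonist CPA or IB-MECA respectively, 30 min compound incubation.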

human A3 receptor = target: T2, human A3 receptor (Homo sapiens, UniProt P0DMS8); assay: functional cAMP (HTRF) assay, recombinant CHO cells expressing human A3 receptor, forskolin, agonist IB-MECA; format: cell-based
T2 construct: expressed in transfected cells; host or cells: CHO
T2 sequence (P0DMS8 1-318): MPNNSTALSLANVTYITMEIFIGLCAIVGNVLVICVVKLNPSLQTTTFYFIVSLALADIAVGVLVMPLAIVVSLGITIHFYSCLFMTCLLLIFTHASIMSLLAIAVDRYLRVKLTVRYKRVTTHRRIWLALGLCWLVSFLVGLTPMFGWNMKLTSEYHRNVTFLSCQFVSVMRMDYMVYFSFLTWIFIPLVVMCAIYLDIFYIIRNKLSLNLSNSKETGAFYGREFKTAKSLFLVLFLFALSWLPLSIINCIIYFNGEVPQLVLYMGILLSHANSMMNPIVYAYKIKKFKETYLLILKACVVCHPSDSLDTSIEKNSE
Procedure, shortened: as §3

human A2A receptor = target: T3, human A2A receptor (Homo sapiens, UniProt P29274); assay: functional cAMP (HTRF) assay, recombinant HEK293 cells expressing human A2A receptor, agonist NECA; format: cell-based
T3 construct: expressed in transfected cells; host or cells: HEK293

A2B receptors = target: T4, A2B receptors (Homo sapiens, UniProt P29275); assay: functional cAMP (HTRF) assay, recombinant HEK293 cells expressing human A2B receptor, agonist NECA; format: cell-based; design: expressed in transfected cells; host or cells: HEK293
T4 sequence (P29275 1-332): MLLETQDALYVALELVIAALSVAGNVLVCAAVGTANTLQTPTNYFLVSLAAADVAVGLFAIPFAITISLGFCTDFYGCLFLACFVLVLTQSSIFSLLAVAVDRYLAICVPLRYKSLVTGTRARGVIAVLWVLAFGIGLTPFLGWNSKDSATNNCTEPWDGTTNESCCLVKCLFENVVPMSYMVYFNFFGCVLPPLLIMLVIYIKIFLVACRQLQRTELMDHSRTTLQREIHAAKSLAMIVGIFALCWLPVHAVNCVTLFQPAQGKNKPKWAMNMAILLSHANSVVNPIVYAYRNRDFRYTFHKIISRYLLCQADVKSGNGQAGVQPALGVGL

[4] = IC50 of cytokine rescue, CGS-21680 1 μM, CD3/CD28 beads

T3 sequence (P29274 whole entry): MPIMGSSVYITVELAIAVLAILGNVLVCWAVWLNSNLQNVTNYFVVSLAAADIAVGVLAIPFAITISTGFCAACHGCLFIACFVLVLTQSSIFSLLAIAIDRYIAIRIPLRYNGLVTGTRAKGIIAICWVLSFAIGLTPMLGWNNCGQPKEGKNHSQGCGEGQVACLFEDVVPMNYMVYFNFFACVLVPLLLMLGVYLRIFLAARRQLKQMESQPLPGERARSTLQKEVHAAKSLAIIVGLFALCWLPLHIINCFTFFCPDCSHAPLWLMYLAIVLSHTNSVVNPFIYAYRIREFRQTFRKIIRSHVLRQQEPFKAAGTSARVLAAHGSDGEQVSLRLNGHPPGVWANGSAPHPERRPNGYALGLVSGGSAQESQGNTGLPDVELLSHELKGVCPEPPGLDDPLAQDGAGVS

Structure (SMILES)	Feces iv [1]	Mouse T-Cell IL-2 (mouse Pan T cells [2]; [4])	Mouse IFN-γ (mouse Pan T cells [3]; [4])	pIC50 (human A1 receptor)	pIC50 (human A3 receptor)	pIC50 (mouse Pan T cells [2])	pIC50 (mouse Pan T cells [3])	pIC50 (human A2A receptor)	pIC50 (A2B receptors)	clearance [1] [L/h/kg]	half-life [1] [min]	Cmax [1] [µg/mL]	Vd [1] [L/kg]
COc1ccc(N2CCOCC2)c2sc(NC(=O)N3CCC(C)(O)CC3)nc12 [Tozadenant, reference compound]	23@0.2%	NA (<50% rescue)	NA (<50% rescue)	–	–	–	–	–	–	–	–	–	–
CCNCc1ccc(C(=O)Nc2nc3c(-c4ccccc4)ccc(OC)c3[nH]2)cc1 [compound 11, 4-Ethylaminomethyl-N-(7-methoxy-4-phenyl-1H-benzoimidazol-2-yl)-benzamide]	–	–	–	< 6.00	< 6.00	7.36	7.12	> 8.00	> 7.00	–	–	–	–
COc1ccc(-c2ccccc2)c2nc(NC(=O)N3CCC(C)(O)CC3)[nH]c12 [compound 12, 4-Hydroxy-4-methyl-piperidine-1-carboxylic acid (7-methoxy-4-phenyl-1H-benzoimidazol-2-yl)-amide]	27@0.2%	–	–	> 6.00	> 6.00	–	–	> 8.00	> 6.00	0.681	42.6	1.82	0.568
COc1ccc(-c2ccccc2)c2nc(NC(=O)c3ccc(Cn4ccnc4)cc3)[nH]c12 [compound 15, 4-Imidazol-1-ylmethyl-N-(7-methoxy-4-phenyl-1H-benzoimidazol-2-yl)-benzamide]	–	–	–	> 6.00	> 7.00	5.95	–	> 8.00	> 8.00	–	–	–	–
COc1ccc(-c2cnn(C)c2)c2nc(NC(=O)N3CCC(C)(CO)CC3)[nH]c12 [compound 35, 4-Hydroxymethyl-4-methyl-piperidine-1-carboxylic acid [7-methoxy-4-(1-methyl-1H-pyrazol-4-yl)-1H-benzoimidazol-2-yl]-amide]	–	–	–	–	–	6.92	6.66	–	–	–	–	–	–
COc1ccc(-c2cnn(C)c2)c2nc(NC(=O)N3CCC4(CCCOC4)C3)[nH]c12 (stereo not drawn) [compound 67, N-[7-methoxy-4-(1-methyl-1H-pyrazol-4-yl)-1H-1,3-benzodiazol-2-yl]-7-oxa-2-azaspiro[4.5]decane-2-carboxamide]	–	–	–	–	–	–	6.10	–	–	–	–	–	–
COc1ccc(-c2cnn(C)c2)c2nc(NC(=O)c3ccc(Cn4ccnc4)cc3)[nH]c12 [compound 71, 4-[(1H-imidazol-1-yl)methyl]-N-[7-methoxy-4-(1-methyl-1H-pyrazol-4-yl)-1H-1,3-benzodiazol-2-yl]benzamide]	–	–	–	< 6.00	> 6.00	7.40	7.40	> 8.00	> 7.00	–	–	–	–
COc1ccc(-c2cnn(C)c2)c2nc(NC(=O)c3ccc(OC(F)(F)F)cc3)[nH]c12 [compound 94, N-[7-methoxy-4-(1-methyl-1H-pyrazol-4-yl)-1H-1,3-benzodiazol-2-yl]-4-(trifluoromethoxy)benzamide]	–	–	–	< 6.00	> 6.00	–	6.00	> 8.00	> 6.00	–	–	–	–
COc1ccc(C2CCOCC2)c2nc(NC(=O)c3ccc(Cn4ccnc4)cc3)[nH]c12 [compound 97, 4-[(1H-imidazol-1-yl)methyl]-N-[7-methoxy-4-(oxan-4-yl)-1H-1,3-benzodiazol-2-yl]benzamide]	29@0.2%	–	–	< 6.00	< 6.00	–	–	> 8.00	> 7.00	0.749	58	1.05	1.01
COc1ccc(-c2cnn(C)c2)c2nc(NC(=O)c3ccnc(N4CC[C@@](C)(O)C4)c3)[nH]c12 [compound 107, 2-[(3R)-3-hydroxy-3-methylpyrrolidin-1-yl]-N-[7-methoxy-4-(1-methyl-1H-pyrazol-4-yl)-1H-1,3-benzodiazol-2-yl]pyridine-4-carboxamide]	34@0.2%	–	–	< 6.00	> 6.00	–	–	> 8.00	> 6.00	1.9	37.3	0.718	1.54
COc1ccc(C2CCOCC2)c2nc(NC(=O)c3ccc(C(=O)N(C)C)cc3)[nH]c12 [compound 133, N4-[7-methoxy-4-(oxan-4-yl)-1H-1,3-benzodiazol-2-yl]-N1,N1-dimethylbenzene-1,4-dicarboxamide]	2.5@0.2%	–	–	< 6.00	< 6.00	–	–	> 8.00	> 6.00	0.76	40.1	2.64	0.402
COc1ccc(N2CCOCC2)c2nc(NC(=O)c3cnn(C)c3)[nH]c12 [compound 136, N-[7-methoxy-4-(morpholin-4-yl)-1H-1,3-benzodiazol-2-yl]-1-methyl-1H-pyrazole-4-carboxamide]	5.6@0.2%	–	–	< 6.00	< 6.00	–	–	> 8.00	< 6.00	0.333	69	2.1	0.522
COc1ccc(C2CCOCC2)c2nc(NC(=O)c3ccc(CN4CCCC4=O)cc3)[nH]c12 [compound 138, N-[7-methoxy-4-(oxan-4-yl)-1H-1,3-benzodiazol-2-yl]-4-[(2-oxopyrrolidin-1-yl)methyl]benzamide]	–	–	–	< 6.00	< 6.00	–	–	> 8.00	> 6.00	1.71	32.3	0.0019	1.06
